Experimental findings from ChEMBL document CHEMBL3879914, “Inhibitors of central nervous system vasoactive inhibitory peptide receptor 2” (2014) are described below.

Assay [1] addresses T1, Vasoactive intestinal polypeptide receptor 2 (Homo sapiens) (UniProt P41587).
T1 sequence (whole entry): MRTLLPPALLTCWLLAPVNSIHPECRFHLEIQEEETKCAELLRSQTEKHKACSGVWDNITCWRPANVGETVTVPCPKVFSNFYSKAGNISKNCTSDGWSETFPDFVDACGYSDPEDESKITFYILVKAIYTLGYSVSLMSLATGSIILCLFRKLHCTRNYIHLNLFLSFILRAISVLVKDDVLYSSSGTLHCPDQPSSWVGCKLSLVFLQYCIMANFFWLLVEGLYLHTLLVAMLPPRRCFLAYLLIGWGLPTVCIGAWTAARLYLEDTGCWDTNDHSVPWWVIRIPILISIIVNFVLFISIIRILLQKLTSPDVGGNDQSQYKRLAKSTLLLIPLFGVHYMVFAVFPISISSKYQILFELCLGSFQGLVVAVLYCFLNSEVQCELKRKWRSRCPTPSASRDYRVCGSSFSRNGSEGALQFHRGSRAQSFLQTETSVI
The assay is described as follows: Antagonist activity at recombinant human N-terminal signal peptide/FLAG epitope-tagged VIPR2 expressed in HEK293 cells co-expressing CAMYEL assessed as inhibition of VIP-induced cAMP accumulation at 1 uM preincubated for 5 mins with luciferin, coelenterazine H followed by VIP addition measured after 5 mins by BRET assay relative to control. Format: functional, cell-based. In general terms: Changes in cAMP serve as a functional read-out for many G protein-coupled receptors.

The target in assay [2] is T1, Vasoactive intestinal polypeptide receptor 2 (Homo sapiens). Put plainly: Antagonist activity at recombinant human N-terminal signal peptide/FLAG epitope-tagged Rluc8-fused VIPR2 expressed in HEK293 cells assessed as inhibition of VIP-induced human mVenus-beta-arrestin2 binding at 5 uM preincubated for 5 mins with luciferin, coelenterazine H followed by VIP addition measured after 5 mins by BRET assay relative to control. Format: cell-based. (Bioluminescence resonance energy transfer reports proximity on the nanometre scale.)

Assay [3] shares this target. The assay is described as follows: Antagonist activity at recombinant human N-terminal signal peptide/FLAG epitope-tagged VIPR2 expressed in HEK293 cells co-expressing CAMYEL assessed as inhibition of VIP-induced cAMP accumulation at 5 uM preincubated for 5 mins with luciferin, coelenterazine H followed by VIP addition measured after 5 mins by BRET assay relative to control. Format: functional, cell-based.

Assay [4] shares this target. Put plainly: Antagonist activity at recombinant human N-terminal signal peptide/FLAG epitope-tagged VIPR2 expressed in HEK293 cells co-expressing CAMYEL assessed as inhibition of VIP-induced cAMP accumulation at 0.5 uM preincubated for 5 mins with luciferin, coelenterazine H followed by VIP addition measured after 5 mins by BRET assay relative to control. Format: functional, cell-based.

Assay [5] has the same target. The assay is described as follows: Antagonist activity at recombinant human N-terminal signal peptide/FLAG epitope-tagged Rluc8-fused VIPR2 expressed in HEK293 cells assessed as inhibition of VIP-induced human mVenus-beta-arrestin2 binding at 1 uM preincubated for 5 mins with luciferin, coelenterazine H followed by VIP addition measured after 5 mins by BRET assay relative to control. Format: cell-based.

The target is the same in assay [6]. The assay is described as follows: Antagonist activity at recombinant human N-terminal signal peptide/FLAG epitope-tagged Rluc8-fused VIPR2 expressed in HEK293 cells assessed as inhibition of VIP-induced human mVenus-beta-arrestin2 binding at 0.5 uM preincubated for 5 mins with luciferin, coelenterazine H followed by VIP addition measured after 5 mins by BRET assay relative to control. Format: cell-based.

As usually defined, the inhibition is the change of the read-out against control, counted positive when it falls. Consider `NC[C@@H](O)C[C@@H](Cc1ccccc1)C(=O)N[C@H]1c2ccccc2C[C@H]1O`, for which the inhibition in assay [1] is 7.4 to 15.9%; in assay [2], 19.7%; in assay [3], 7.4 to 15.2%; in assay [4] it was 11.8%; in assay [5] it was 1.4%; in assay [6], 3.7 to 17.4%.
`O=C(NCc1ccccc1)[C@@H](Cc1ccccc1)C[C@H](O)CNS(=O)(=O)c1ccc([N+](=O)[O-])cc1`: the inhibition in assay [1] is 1.5%; in assay [2] it was 7.2%; in assay [3] it was 4.9%; in assay [4], -1%; in assay [5] it was -4.1%; in assay [6], -0.3 to 6.05%.
`O=C(NC[C@@H](O)C[C@@H](Cc1ccccc1)C(=O)N[C@H]1c2ccccc2C[C@H]1O)c1ccc2ccccc2c1`: the inhibition in assay [1] is 16.3%; in assay [2], 9.7%; in assay [3], 23.5%; in assay [4], 13.2%; in assay [5] it was 11.1%; in assay [6] it was -2.9 to 16.6%.
Regarding `O=C(NC1Cc2ccccc2C1)[C@H](Cc1ccccc1)C[C@H](O)CNS(=O)(=O)c1ccc([N+](=O)[O-])cc1`, the inhibition in assay [1] was 7.5%; in assay [2] it was 9.8%; in assay [3], 16%; in assay [4], 5.7%; in assay [5], 8.1%; in assay [6], -2.7 to 12.9%.
As for `CNc1ccc(S(=O)(=O)NC[C@@H](O)C[C@@H](Cc2ccccc2)C(=O)N[C@H]2c3ccccc3C[C@H]2O)cc1`, the inhibition in assay [1] is 2%; in assay [2], 4.3%; in assay [3], -7.3%; in assay [4], -0.9%; in assay [5], 1.1%; in assay [6] it was -1.5 to -0.8%.
On to `NC(=O)[C@@H](Cc1ccccc1)C[C@H](O)CNS(=O)(=O)c1ccc([N+](=O)[O-])cc1`, for which the inhibition was 12.6% in assay [1]; 7% in assay [2]; 9.7% in assay [3]; 14.6% in assay [4]; -9.8% in assay [5]; 3.5 to 8.35% in assay [6].
In the case of `O=C(NC1CCCCCC1)[C@@H](Cc1ccccc1)C[C@H](O)CNS(=O)(=O)c1ccc([N+](=O)[O-])cc1`, the inhibition in assay [1] was 10.6%; in assay [2], 6.8%; in assay [3], 14.3%; in assay [4] it was 15.5%; in assay [5], 3.6%; in assay [6], -4 to 10.6%.
On to `O=C(NC[C@@H](O)C[C@@H](Cc1ccccc1)C(=O)N[C@H]1c2ccccc2C[C@H]1O)c1ccccc1[N+](=O)[O-]`, for which the inhibition is 14.3% in assay [1]; 26.1% in assay [2]; 9.1% in assay [3]; 17.6% in assay [4]; 35.1% in assay [5]; 17.6 to 36.4% in assay [6].
For `CS(=O)(=O)NC[C@@H](O)C[C@@H](Cc1ccccc1)C(=O)N[C@H]1c2ccccc2C[C@H]1O`, the inhibition in assay [1] was 21.9%; in assay [2] it was 23.4%; in assay [3] it was 18.5%; in assay [4] it was 21.4%; in assay [5], 31.6%; in assay [6], 17.3 to 20.9%.
On to `CCN(CC)C(=O)[C@H](Cc1ccccc1)C[C@H](O)CNS(=O)(=O)c1ccc([N+](=O)[O-])cc1`, for which the inhibition was -6.1% in assay [1]; 5.7% in assay [2]; -4.3% in assay [3]; -8.1% in assay [4]; 7.9% in assay [5]; -5.4 to 0.7% in assay [6].
Turning to `O=C(NC[C@@H](O)C[C@@H](Cc1ccccc1)C(=O)N[C@H]1c2ccccc2C[C@H]1O)C(Cl)Cl`, the inhibition in assay [1] was 18.3%; in assay [2] it was 20%; in assay [3], 19.6%; in assay [4] it was 18.4%; in assay [5], 17.4%; in assay [6], 9.5 to 19.8%.
Turning to `O=C(NC[C@@H](O)C[C@@H](Cc1ccccc1)C(=O)N[C@H]1c2ccccc2C[C@H]1O)c1cccc([N+](=O)[O-])c1`, the inhibition in assay [1] was 11%; in assay [2], -4%; in assay [3] it was 13.5%; in assay [4], 11.8%; in assay [5] it was 7.4%; in assay [6], 4.75 to 19.9%.
For `CCCCNC(=O)c1ccc(S(=O)(=O)NC[C@@H](O)C[C@@H](Cc2ccccc2)C(=O)N[C@H]2c3ccccc3C[C@H]2O)cc1`, the inhibition was 5.9% in assay [1]; -5.5% in assay [2]; 20.6% in assay [3]; -0.4% in assay [4]; 2.9% in assay [5]; -0.4 to 7.55% in assay [6].
For the compound `CC(=O)Nc1ccc(S(=O)(=O)NC[C@H](C[C@@H](Cc2ccccc2)C(=O)N[C@H]2c3ccccc3C[C@H]2OC(C)=O)OC(C)=O)cc1`, the inhibition in assay [1] is -8.7%; in assay [2], 9.7%; in assay [3], -5.8%; in assay [4], -8.7%; in assay [5] it was 0.2%; in assay [6] it was 0.5 to 1.95%.
As for `CN(C)c1ccc(S(=O)(=O)NC[C@@H](O)C[C@@H](Cc2ccccc2)C(=O)N[C@H]2c3ccccc3C[C@H]2O)cc1`, the inhibition in assay [1] is -1.4%; in assay [2], 8.7%; in assay [3], -3.4%; in assay [4] it was 9.4%; in assay [5] it was -1.6%; in assay [6], 2.65 to 4.2%.
With `O=C(N[C@H]1c2ccccc2C[C@H]1O)[C@H](Cc1ccccc1)C[C@H](O)CNS(=O)(=O)c1ccccc1F`, the inhibition in assay [1] is 22.3%; in assay [2], 52%; in assay [3], 28.3%; in assay [4], 28.6%; in assay [5], 28.3%; in assay [6], 5.3 to 40.1%.
In the case of `O=C([C@@H](Cc1ccccc1)C[C@H](O)CNS(=O)(=O)c1ccc([N+](=O)[O-])cc1)N1CCCCC1`, the inhibition was 14.2% in assay [1]; 14.9% in assay [2]; 9.4% in assay [3]; 14.2% in assay [4]; 9.2% in assay [5]; 9.5 to 12.2% in assay [6].
Take `O=C(CCCCl)NC[C@@H](O)C[C@@H](Cc1ccccc1)C(=O)N[C@H]1c2ccccc2C[C@H]1O`: the inhibition in assay [1] is 18.2%; in assay [2], 21.1%; in assay [3], 15.9%; in assay [4] it was 16.4%; in assay [5], 24.3%; in assay [6] it was 18.5 to 19.2%.
`CC(C)Nc1ccc(S(=O)(=O)NC[C@@H](O)C[C@@H](Cc2ccccc2)C(=O)N[C@H]2c3ccccc3C[C@H]2O)cc1`: the inhibition in assay [1] was 18.2%; in assay [2], 11.8%; in assay [3], 20.6%; in assay [4] it was 17.2%; in assay [5], -2%; in assay [6] it was 8.1 to 16.2%.
As for `CCCCNC(=O)[C@H](Cc1ccccc1)C[C@H](O)CNS(=O)(=O)c1ccc([N+](=O)[O-])cc1`, the inhibition in assay [1] is 5.1%; in assay [2], 13.8%; in assay [3] it was 5.3%; in assay [4], 0.9%; in assay [5], 1.9%; in assay [6], -5.6 to 9.55%.
For `CC(C)CS(=O)(=O)NC[C@@H](O)C[C@@H](Cc1ccccc1)C(=O)N[C@H]1c2ccccc2C[C@H]1O`, the inhibition was 15.6% in assay [1]; 20% in assay [2]; 22.2% in assay [3]; 13.3% in assay [4]; 3.2% in assay [5]; 7.1 to 21.1% in assay [6].
As to `O=C(NC[C@@H](O)C[C@@H](Cc1ccccc1)C(=O)N[C@H]1c2ccccc2C[C@H]1O)c1cccnc1`, the inhibition in assay [1] is 13.5%; in assay [2], -6.3%; in assay [3] it was 16.4%; in assay [4], 15.2%; in assay [5] it was -5.7%; in assay [6], -6.8 to 5.05%.
Consider `O=C(O)c1ccc(S(=O)(=O)NC[C@@H](O)C[C@@H](Cc2ccccc2)C(=O)N[C@H]2c3ccccc3C[C@H]2O)cc1`, for which the inhibition in assay [1] is 6.4%; in assay [2] it was 0.2%; in assay [3] it was 26%; in assay [4], 7.4%; in assay [5], -1.8%; in assay [6], 6.4 to 13.1%.
